Experimental data published in patent publication US12115178B2, “Acylated active agents and methods of their use for the treatment of autoimmune disorders” (Flagship Pioneering Innovations V, Inc., priority 2018, dated 2024).

Assays:
[1] = Assay 2. Stability in Simulated Intestinal Fluid (SIF); format: in vitro ADME; settings: SIF pH 6.7 with pancreatin, 1 μM, 37° C.
Procedure: Assay 2. Stability of acylated active agents in Simulated Intestinal Fluid (SIF). This assay was used to assess the stability of an acylated active agent in a small intestine. Phosphate buffer was prepared by dissolving 0.42 g of sodium hydroxide pellets and 3.95 g of monobasic sodium phosphate monohydrate and 6.19 g of sodium chloride in ultrapure water (MilliQ®, Millipore Sigma, Darmstadt, Germany). The pH was adjusted to 6.7 using aq. HCl and aq. NaOH, as necessary, and the solution was diluted with ultrapure water to produce 1 L of the pH 6.7 buffer. 112 mg FaSSIF powder (Biorelevant™, London, UK) was dissolved in 50 mL of the pH 6.7 buffer. 2 to 3 mL of the resulting solution were then added to 500 mg pancreatin (Millipore Sigma, Darmstadt, Germany). The resulting mixture was agitated by finger tapping the vessel containing the mixture until milky suspension formed. At this time, the remainder of the 50 mL FaSSiF/pH 6.7 buffer solution was added. The resulting suspension was flipped upside down 10 times to produce SIF, which was used fresh. Test compounds were dissolved in DMSO stock to 1 mM. An aliquot of the DMSO stock solution was removed and diluted in the SIF media in 15 mL falcon tubes to produce a mixture with a tested compound concentration of 1 μM. A 1 mL aliquot was immediately removed and diluted once with 1 volume of acetonitrile for T0 timepoint. The mixture was sealed and agitated at 37° C. in an incubator. Aliquots (1 mL) were removed at regular intervals and immediately quenched by the addition of 1 volume of acetonitrile. The resulting samples were analyzed by LC/MS to determine degradation rates.

[2] = Assay 1. Stability in Simulated Gastric Fluid (SGF); format: in vitro ADME; settings: SGF pH 1.6 with pepsin, 1 μM, 37° C.
Procedure: Assay 1. Stability of acylated active agents in Simulated Gastric Fluid (SGF). This assay was used to assess the stability of an acylated active agent in a stomach.
Medium was prepared by dissolving 2 g of sodium chloride in 0.6 L in ultrapure water (MilliQ®, Millipore Sigma, Darmstadt, Germany). The pH was adjusted to 1.6 with 1N hydrochloric acid, and the volume was then adjusted to 1 L with purified water.
60 mg FaSSIF powder (Biorelevant™, London, UK) were dissolved in 500 mL buffer (above). Pepsin was added (0.1 mg/mL) (Millipore Sigma, Darmstadt, Germany), and the solution was stirred. The resulting SGF media were used fresh for each experiment.
Test compounds were dissolved in DMSO stock to 1 mM. An aliquot of the DMSO stock solution was removed and diluted in the SGF Media in 15 mL falcon tubes to generate a total compound concentration of 1 μM. A 1 mL aliquot was immediately removed and diluted once with 1 volume of acetonitrile for T0 timepoint. The mixture was sealed and mixed at 37° C. in an incubator. Aliquots (1 mL) were removed at regular intervals and immediately quenched by the addition of 1 volume of acetonitrile. The resulting samples were analyzed by LC/MS to determine degradation rates in SGF.

Compound | Assay 2 (SIF) (% @ Remaining 4 hours) [1] | Assay 1 (SGF) (% Remaining @ 1 hour) [2]
CCC(=O)Oc1cc(OC(=O)CC)c2c(=O)c(OC(=O)CC)c(-c3cc(OC(=O)CC)c(OC(=O)CC)c(OC(=O)CC)c3)oc2c1 [Compound 13, [4-oxo-3,5-di(propanoyloxy)-2-[3,4,5-tri(propanoyloxy)phenyl]chromen-7-yl] propanoate] | A (<25% of the tested compound remaining) | B (25-75% of the tested compound remaining)
CCC(=O)O[C@@H]1[C@@H](OC(=O)CC)[C@H](Oc2ccccc2C(=O)O)OC[C@@H]1OC(=O)CC [Compound 26, 2-(((2S,3R,4S,5S)-3,4,5-tris(propionyloxy)tetrahydro-2H-pyran-2-yl)oxy)benzoic acid] | A (<25% of the tested compound remaining) | C (>75% of the tested compound remaining)
CCCC(=O)O[C@@H]1[C@@H](OC(=O)CCC)[C@@H](OC(=O)CCc2c[nH]c3ccccc23)OC[C@@H]1OC(=O)CCC [Compound 81, (2R,3R,4S,5S)-4,5-bis(butanoyloxy)-2-{[3-(1H-indol-3-yl)propanoyl]oxy}oxan-3-yl butanoate] | A (<25% of the tested compound remaining) | B (25-75% of the tested compound remaining)
CC(=O)Oc1ccc(C2CC(=O)c3c(OC(C)=O)cc(OC(C)=O)cc3O2)cc1 (stereo not shown) [Compound 9, [4-(5,7-diacetoxy-4-oxo-chroman-2-yl)phenyl] acetate] | A (<25% of the tested compound remaining) | C (>75% of the tested compound remaining)
CCCC(=O)O[C@H]1[C@@H](OC(=O)CCC)COC(O)[C@@H]1OC(=O)CCC (stereo partly drawn) [Compound 151, (3S,4S,5R)-4,5-bis(butanoyloxy)-6-hydroxyoxan-3-yl butanoate] | A (<25% of the tested compound remaining) | C (>75% of the tested compound remaining)
CCCC(=O)Oc1cc(OC(=O)CCC)c2c(=O)c(OC(=O)CCC)c(-c3cc(OC(=O)CCC)c(OC(=O)CCC)c(OC(=O)CCC)c3)oc2c1 [Compound 169, 3,5-bis(butanoyloxy)-4-oxo-2-[3,4,5-tris(butanoyloxy)phenyl]-4H-chromen-7-yl butanoate] | C (>75% of the tested compound remaining) | C (>75% of the tested compound remaining)
CCCC(=O)Oc1cc(OC(=O)CCC)c2c(=O)c(OC(=O)CCC)c(-c3ccc(OC(=O)CCC)c(OC(=O)CCC)c3)oc2c1 [Compound 181, [2-butanoyloxy-4-[3,5,7-tri(butanoyloxy)-4-oxo-chromen-2-yl]phenyl] butanoate] | A (<25% of the tested compound remaining) | C (>75% of the tested compound remaining)
CC(=O)Oc1cc(C(=O)O)cc(OC(C)=O)c1OC(C)=O [Compound 199, 3,4,5-triacetoxybenzoic acid] | B (25-75% of the tested compound remaining) | C (>75% of the tested compound remaining)
CCC(=O)Oc1ccc2c(c1)oc(=O)c1cc(OC(=O)CC)c(OC(=O)CC)cc12 [Compound 204, [6-oxo-8,9-di(propanoyloxy)benzo[c]chromen-3-yl] propanoate] | A (<25% of the tested compound remaining) | C (>75% of the tested compound remaining)
CCC(=O)O[C@@H]1[C@@H](OC(=O)CC)[C@H](OC(=O)CC)CO[C@H]1O [Compound 129, (2R,3R,4S,5R)-2-hydroxy-4,5-bis(propanoyloxy)oxan-3-yl propanoate] | A (<25% of the tested compound remaining) | C (>75% of the tested compound remaining)
CCC(=O)OC1O[C@@H](C)[C@@H](OC(=O)CC)[C@@H](OC(=O)CC)[C@@H]1OC(=O)CC (stereo partly drawn) [Compound 125, (3S,4R,5R,6S)-6-methyl-3,4,5-tris(propanoyloxy)oxan-2-yl propanoate] | A (<25% of the tested compound remaining) | C (>75% of the tested compound remaining)
CCC(=O)OC1OC[C@@H](OC(=O)CC)[C@H](OC(=O)CC)[C@H]1OC(=O)CC (stereo partly drawn) [Compound 130, (3R,4S,5R)-3,4,5-tris(propanoyloxy)oxan-2-yl propanoate] | A (<25% of the tested compound remaining) | C (>75% of the tested compound remaining)
CCCC(=O)O[C@@H]1[C@H](OC(=O)CCC)[C@H](C)OC(O)[C@H]1OC(=O)CCC (stereo partly drawn) [Compound 136, (3S,4R,5R,6S)-4,5-bis(butanoyloxy)-2-hydroxy-6-methyloxan-3-yl butanoate] | A (<25% of the tested compound remaining) | C (>75% of the tested compound remaining)
CCCC(=O)O[C@@H]1[C@H](OC(=O)CCC)[C@H](C)OC(Oc2ccc(N)cc2C(=O)O)[C@H]1OC(=O)CCC (stereo partly drawn) [Compound 41, 5-amino-2-(((3S,4R,5R,6S)-3,4,5-tris(butyryloxy)-6-methyltetrahydro-2H-pyran-2-yl)oxy)benzoic acid] | C (>75% of the tested compound remaining) | C (>75% of the tested compound remaining)
CCC(=O)OC[C@H]1OC(O)[C@H](OC(=O)CC)[C@@H](OC(=O)CC)[C@@H]1OC(=O)CC (stereo partly drawn) [Compound 110, [(2R,3R,4S,5R)-6-hydroxy-3,4,5-tris(propanoyloxy)oxan-2-yl]methyl propanoate] | A (<25% of the tested compound remaining) | C (>75% of the tested compound remaining)
CCCC(=O)Oc1cc(OC(=O)CCC)c2c(=O)cc(-c3ccc(OC(=O)CCC)c(OC(=O)CCC)c3)oc2c1 [Compound 171, 2-[3,4-bis(butanoyloxy)phenyl]-5-(butanoyloxy)-4-oxo-4H-chromen-7-yl butanoate] | A (<25% of the tested compound remaining) | C (>75% of the tested compound remaining)
CCC(=O)O[C@@H]1[C@H](OC(=O)CC)[C@H](C)OC(Oc2ccccc2C(=O)O)[C@H]1OC(=O)CC (stereo partly drawn) [Compound 25, 2-(((3S,4R,5R,6S)-6-methyl-3,4,5-tris(propionyloxy)tetrahydro-2H-pyran-2-yl)oxy)benzoic acid] | C (>75% of the tested compound remaining) | C (>75% of the tested compound remaining)
CCC(=O)O[C@@H]1[C@@H](OC(=O)CC)[C@H](Oc2ccccc2C(=O)O)OC[C@H]1OC(=O)CC [Compound 27, 2-(((2S,3R,4S,5R)-3,4,5-tris(propionyloxy)tetrahydro-2H-pyran-2-yl)oxy)benzoic acid] | B (25-75% of the tested compound remaining) | C (>75% of the tested compound remaining)
O=C(CCc1c[nH]c2ccccc12)O[C@@H]1[C@H](OC(=O)CCc2c[nH]c3ccccc23)C=C(C(=O)O)C[C@H]1OC(=O)CCc1c[nH]c2ccccc12 [Compound 216, (3R,4S,5R)-3,4,5-tris({[3-(1H-indol-3-yl)propanoyl]oxy})cyclohex-1-ene-1-carboxylic acid] | B (25-75% of the tested compound remaining) | B (25-75% of the tested compound remaining)
CCC(=O)O[C@H]1[C@H](OC(=O)CC)[C@H](OC(=O)/C=C/c2c[nH]c3ccccc23)O[C@@H](C)[C@H]1OC(=O)CC [Compound 116, (2S,3S,4R,5R,6S)-6-methyl-3,4,5-tris(propanoyloxy)oxan-2-yl (2E)-3-(1H-indol-3-yl)prop-2-enoate] | – | C (>75% of the tested compound remaining)
CCC(=O)O[C@@H]1[C@@H](OC(=O)CC)[C@H](OC(=O)CCc2c[nH]c3ccccc23)OC[C@H]1OC(=O)CC [Compound 132, (2S,3R,4S,5R)-3,4,5-tris(propanoyloxy)oxan-2-yl 3-(1H-indol-3-yl)propanoate] | – | C (>75% of the tested compound remaining)
